Article PMC4428032 (Bioconjugate Chemistry, 2015)

Experiments:
[1] = cited from earlier work
[2] = T1 relaxivity measurements at 0.5 T; assay type: physicochemical; settings: 20 MHz, 25 °C

SMILES	thermodynamic stability constant log K [1]	T1 relaxivity [2]
O=C([O-])CN1CCN(CC(=O)[O-])CCN(CC(=O)[O-])CC1.[Ga+3] [Ga-NOTA]	31.0	–
O=C([O-])CN1CCN(CC(=O)[O-])CCN(CC(=O)O)CCN(CC(=O)[O-])CC1.[Gd+3] [Gd-DOTA]	24.7	–
O=C([O-])CN1CCN(CC(=O)[O-])CCN(CC(=O)[O-])CC1.[Gd+3] [Gd-NOTA]	14.3	–
CNC[C@H](O)[C@@H](O)[C@H](O)[C@H](O)CO.CNC[C@H](O)[C@@H](O)[C@H](O)[C@H](O)CO.O=C([O-])CN(CCN(CC(=O)[O-])CC(=O)O)CCN(CC(=O)[O-])CC(=O)O.[Gd+3] [Magnevist]	–	4.1 mM^–1 s^–1
